According to patent publication US10919891B2, “Heterocyclic compound” (TAKEDA PHARMACEUTICAL COMPANY LIMITED, priority 2017, dated 2021):

Assays:
CYP3A = experiment: CYP Induction (CYP3A activity in cryopreserved hepatocytes, P450-Glo CYP3A4 assay); type: in vitro ADME; settings: % of positive control (inducibility by 10 μmol/L rifampicin = 100%); hepatocytes treated 3 days
Method: Cryopreserved hepatocytes were thawed in a culture medium (In VitroGRO™ CP Medium, Celsis In Vitro Technologies, U.S.A.), and the resultant was added to BioCoat™ Matrigel® Matrix Thin-Layer 96 well (Becton, Dickinson and Company, U.S.A.) at a concentration of 40,000 cells/well. After culturing for 24 hours, the culture medium was removed, and replaced with an incubation medium (In VitroGRO™, HI Medium with Torpedo Antibiotic Mix, Celsis In Vitro Technologies, U.S.A.). Cells were cultured for an additional 3 days. The medium was removed on day 4, and the remained cells were treated in the induction medium containing a test compound for 3 days in the presence or absence of 10 μmol/L rifampicin. The induction medium was replaced every day. The test compound addition wells in the presence of 10 μmol/L rifampicin were used to evaluate the inhibitory effect of the test compound on the inducibility of the CYP3A activity by rifampicin. The CYP3A activity was evaluated by measuring luciferin generating amount after the addition of 2 μmol/L luciferin-IPA using IPA P450-Glo™ CYP3A4 assay systems (Promega Corporation, U.S.A.). All cultures were carried out under a humidified environment at 37° C., 5% CO2. The inducibility by rifampicin was defines as 100%, and the inducibility of the test compound (% of positive control) was calculated from the following equation: [(luciferin fluorescence intensity in the absence of rifampicin and the presence of test compound)−(luciferin fluorescence intensity in the absence of rifampicin and test compound)/(luciferin fluorescence intensity in the presence of rifampicin and the absence of test compound)−(Luciferin fluorescence intensity in the absence of rifampicin and test compound)]×100.

CYP3A4 = molecular target: T1, CYP3A4 (Homo sapiens, UniProt P08684); experiment: CYP3A4 TDI (human liver microsomes, testosterone 6β-hydroxylation); type: in vitro ADME; settings: test compound 30 μM, 60 min vs 0 min preincubation with NADPH, 37° C.
T1 construct: Human liver microsomes purchased from XenoTech, LLC (Lenexa, Kans.) was used; tissue XenoTech, LLC; host or cells: human liver microsomes
Method: Human liver microsomes purchased from XenoTech, LLC (Lenexa, Kans.) was used. Test compounds were dissolved in acetonitrile, acetonitrile/methanol (1:1, v/v) or DMSO/acetonitrile (1:4, v/v). To a human liver microsomes solution adjusted with phosphate buffer (pH 7.4), the test compound solution was added to obtain a human liver microsomes reaction solution having the test compound concentration of 30 μM. To the human liver microsome reaction solution, NADPH production system was added, and the mixture was preincubated at 37° C. for 0 minutes or 60 minutes. After the preincubation, probe substrate testosterone was added, and testosterone metabolite 6β-hydroxytestosterone was analyzed by LC/MS/MS to evaluate CYP3A4 enzymatic activity.
The enzyme activity (% of control) at each preincubation point was calculated from the following equation: % of control=[(activity of test compound addition group)/(activity of test compound non-addition group)]×100.
The remaining activity (% remaining) after 60 minutes of preincubation was calculated from the following equation: Remaining activity (%)=[activity after 60 minutes (% of control60 min)]/[activity after 0 minutes (% of control0 min)]×100.

human CaSR = molecular target: T2, human CaSR (Homo sapiens, UniProt P41180); experiment: Human CaSR Antagonist Activity (CHO cells, NFAT-Luciferase reporter); type: cell-based; settings: CHO, 2 h, 3.3 μm test compound; CaCl2 final 1.3 mM; 100% = reference carboxamide at 10 μM; read-out: Inhibition rate (%) at 3.3 μm
T2 construct: expressed in transfected cells; host or cells: CHO cells
T2 sequence (P41180 20-1078): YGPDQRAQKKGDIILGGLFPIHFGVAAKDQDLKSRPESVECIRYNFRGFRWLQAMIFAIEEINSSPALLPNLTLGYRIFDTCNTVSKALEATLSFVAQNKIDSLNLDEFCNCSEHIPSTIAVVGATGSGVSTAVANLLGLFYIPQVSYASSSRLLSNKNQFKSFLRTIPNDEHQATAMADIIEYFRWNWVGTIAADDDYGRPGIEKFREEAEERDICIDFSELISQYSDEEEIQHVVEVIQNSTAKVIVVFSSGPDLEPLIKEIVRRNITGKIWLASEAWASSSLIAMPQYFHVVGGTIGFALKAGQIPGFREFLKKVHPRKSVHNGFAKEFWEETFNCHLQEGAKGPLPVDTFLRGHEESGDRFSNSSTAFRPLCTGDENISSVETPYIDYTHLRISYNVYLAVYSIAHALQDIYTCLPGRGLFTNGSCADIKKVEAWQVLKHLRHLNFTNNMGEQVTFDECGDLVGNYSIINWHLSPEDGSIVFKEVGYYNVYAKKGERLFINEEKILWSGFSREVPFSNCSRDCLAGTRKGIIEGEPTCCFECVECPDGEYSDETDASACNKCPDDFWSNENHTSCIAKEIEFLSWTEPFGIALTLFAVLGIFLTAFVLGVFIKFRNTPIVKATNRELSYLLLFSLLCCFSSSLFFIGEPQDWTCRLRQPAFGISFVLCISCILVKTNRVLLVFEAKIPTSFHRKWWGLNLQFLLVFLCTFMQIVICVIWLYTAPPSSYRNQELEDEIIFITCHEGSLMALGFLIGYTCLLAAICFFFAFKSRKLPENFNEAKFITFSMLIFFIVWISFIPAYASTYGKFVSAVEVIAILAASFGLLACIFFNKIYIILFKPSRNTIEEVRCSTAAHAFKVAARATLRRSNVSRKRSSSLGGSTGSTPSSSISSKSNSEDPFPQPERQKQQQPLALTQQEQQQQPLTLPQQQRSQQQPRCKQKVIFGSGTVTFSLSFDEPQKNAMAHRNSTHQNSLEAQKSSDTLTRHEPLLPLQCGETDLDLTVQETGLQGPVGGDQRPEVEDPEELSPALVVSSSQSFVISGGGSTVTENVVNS
Method: CaSR antagonist activity measurement was performed using Bright-Glo Luciferase assay system (Promega Corporation). CHO cells in which human CaSR and NFAT-Luciferase reporter gene were forcibly expressed were suspended in MEM alpha (Wako Pure Chemical Industries, Ltd.) containing 10% dialyzed serum (HyClone). The cells in suspension was seeded in 384-well white plate (Corning) at 10,000/20 μL/well, and cultured in an incubator of 37° C., 5% CO2 for one day. A diluent of Test compound was prepared with assay buffer (MEM alpha containing 10 mM HEPES (Life Technologies) and 10% dialysis serum). The diluent was added to the plate at 5 μL/well and allowed to stand at 37° C. for 10 minutes. Further, a diluent of 7.8 mM CaCl2 prepared with assay buffer (final concentration 1.3 mM) was added at 5 μl/well and allowed to stand in an incubator of 37° C., 5% CO2 for 2 hours. Bright-Glo reagents (Promega Corporation) were added at 10 μL/well, and the obtained mixture was stirred for 5 minutes, and then luminescence intensity was measured using Multi-label reader Envision (PerkinElmer, Inc.). The activity (%) of the test compound was calculated with the definitions in which the luminescence intensity when DMSO is added in place of the test compound is defined as 0% inhibition; and the luminescence intensity when (5R)—N-(1-ethyl-1-(4-ethylphenyl)propyl)-2,7,7-trimethyl-5-phenyl-4,5,6,7-tetrahydropyrazolo[1,5-a]Pyrimidine-3-carboxamide at final concentration of 10 μM is added is defined as 100% inhibition.

[1] = system: aortic banding (TAC) models; settings: cited from earlier work
[2] = dosing after cardiac loading; cited from earlier work
[3] = system: monocrotaline (MCT)-induced pulmonary hypertension rats; settings: cited from earlier work
[4] = system: hypoxia-induced pulmonary hypertension (HPH) mice; settings: cited from earlier work

T1 sequence (P08684 whole entry): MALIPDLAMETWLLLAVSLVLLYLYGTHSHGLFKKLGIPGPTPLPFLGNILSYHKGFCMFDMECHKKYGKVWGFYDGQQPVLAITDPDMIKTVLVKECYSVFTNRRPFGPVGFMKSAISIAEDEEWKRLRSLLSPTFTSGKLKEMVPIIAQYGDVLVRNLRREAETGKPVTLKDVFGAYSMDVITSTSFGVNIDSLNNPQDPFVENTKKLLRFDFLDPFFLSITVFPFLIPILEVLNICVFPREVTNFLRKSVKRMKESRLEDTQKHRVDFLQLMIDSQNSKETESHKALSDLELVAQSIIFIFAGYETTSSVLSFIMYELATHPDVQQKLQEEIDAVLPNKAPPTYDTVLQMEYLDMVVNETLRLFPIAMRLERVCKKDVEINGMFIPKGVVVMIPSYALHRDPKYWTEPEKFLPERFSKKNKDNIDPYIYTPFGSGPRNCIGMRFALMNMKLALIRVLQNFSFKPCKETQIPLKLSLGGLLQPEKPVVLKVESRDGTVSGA

| Inducibility (%) (CYP3A) | Remaining Activity (%) (CYP3A4) | inhibition at 3.3 µM (human CaSR) [%] | SMILES | cardiac hypertrophy [1] | cardiac hypofunction [2] | cardiac hypertrophy, elevated right ventricular systolic pressure, fibrosis of cardiac muscle tissue, pulmonary vascular remodeling [3] | cardiac hypertrophy, elevated right ventricular systolic pressure, fibrosis of cardiac muscle tissue, pulmonary vascular remodeling [4] |
| --- | --- | --- | --- | --- | --- | --- | --- |
| 2.3 | 78.1 | 97 | CC1(C)C[C@H](c2ccccc2)Nc2c(C(=O)N3CC4CC4(c4ccc(C(F)(F)F)cc4)C3)cnn21 (single isomer, unassigned) [Example 7] | – | – | – | – |
| 9.0 | 86.4 | 96 | CC1(C)C[C@H](c2ccccc2)Nc2c(C(=O)N3CC4CC4(c4cc(Cl)cc(C(F)(F)F)c4)C3)cnn21 (single isomer, unassigned) [Example 9] | – | – | – | – |
| 1.2 | 97.7 | 99 | CC1(C)C[C@H](c2ccccc2)Nc2c(C(=O)N3CC4CC4(c4ccc(C(F)(F)F)c(Cl)c4)C3)cnn21 (single isomer, unassigned) [Example 11] | – | – | – | – |
| 16.7 | 81.8 | 101 | CC1(C)C[C@H](c2ccccc2)Nc2c(C(=O)N3CC4CC4(c4ccc(Cl)c(C(F)(F)F)c4)C3)cnn21 (single isomer, unassigned) [Example 13] | – | – | – | – |

Second part, the molecule before the results:

| SMILES | Inducibility (%) (CYP3A) | Remaining Activity (%) (CYP3A4) | inhibition at 3.3 µM (human CaSR) [%] | cardiac hypertrophy [1] | cardiac hypofunction [2] | cardiac hypertrophy, elevated right ventricular systolic pressure, fibrosis of cardiac muscle tissue, pulmonary vascular remodeling [3] | cardiac hypertrophy, elevated right ventricular systolic pressure, fibrosis of cardiac muscle tissue, pulmonary vascular remodeling [4] |
| --- | --- | --- | --- | --- | --- | --- | --- |
| CC1(C)C[C@H](c2ccccc2)Nc2c(C(=O)N3CC4CC4(c4cc(Cl)cc(Cl)c4)C3)cnn21 (single isomer, unassigned) [Example 4] | 10.7 | 87.0 | 100 | – | – | – | – |
| C[C@@H](N[C@H]1CCCC[C@@H]1NC(=O)c1ccc(Cl)cc1)c1cccc2ccccc12 [Calhex231] | – | – | – | improves cardiac hypertrophy | fails to improve cardiac hypofunction | – | – |
| CC(C)(Cc1ccc2ccccc2c1)NC[C@@H](O)COc1cccc(Cl)c1C#N [NPS-2143] | – | – | – | – | – | suppressed | suppressed |
